Here are results for nine molecules from ChEMBL document CHEMBL1155486, “From 6-aminoquinolone antibacterials to 6-amino-7-thiopyranopyridinylquinolone ethyl esters as inhibitors of Staphylococcus aureus multidrug efflux pumps” (2010).

For test [1], the target named is T1, Quinolone resistance protein NorA (Staphylococcus aureus) (UniProt P0A0J7).
T1 sequence (whole entry): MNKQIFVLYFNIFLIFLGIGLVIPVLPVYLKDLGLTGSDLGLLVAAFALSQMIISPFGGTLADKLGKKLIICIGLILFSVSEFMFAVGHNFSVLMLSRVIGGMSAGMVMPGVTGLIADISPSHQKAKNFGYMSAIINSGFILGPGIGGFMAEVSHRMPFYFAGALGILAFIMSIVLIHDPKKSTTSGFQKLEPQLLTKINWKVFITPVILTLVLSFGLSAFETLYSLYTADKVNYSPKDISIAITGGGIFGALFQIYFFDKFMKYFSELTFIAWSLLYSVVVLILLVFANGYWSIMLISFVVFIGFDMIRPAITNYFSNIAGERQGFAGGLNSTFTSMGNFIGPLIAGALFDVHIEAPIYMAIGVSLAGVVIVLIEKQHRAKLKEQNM
Kind of test: Inhibition of NorA in Staphylococcus aureus SA-1199B assessed as reduction in ethidium bromide efflux at 50 uM by fluorimetry. More on the design: scale not given: the % may be the effect or the level left.

The subject of test [2] is Staphylococcus aureus. Kind of test: Antibacterial activity against Staphylococcus aureus SA-1199B by EtBr efflux assay. The test is classed as functional.
Test [3] has as its system Staphylococcus aureus. Kind of test: Antibacterial activity against Staphylococcus aureus K1035 bearing wild-type GyrA and S80F mutant GrlA by microdilution technique. The test is classed as functional. For orientation: In broth dilution the organism is exposed to a series of concentrations in liquid medium.
In test [4] the test system is Staphylococcus aureus. Kind of test: Antibacterial activity against Staphylococcus aureus ATCC 25923 by microdilution technique. The test is classed as functional.
For test [5], the system named is Staphylococcus aureus. Kind of test: Antibacterial activity against Staphylococcus aureus K1134 bearing wild-type GyrA and S80Y mutant GrlA by microdilution technique. The test is classed as functional.
Test [6] deals with Staphylococcus aureus. Kind of test: Antibacterial activity against Staphylococcus aureus SA-1199B norA++ and A116E GrlA mutation by microdilution technique. The test is classed as functional.
Test [7] has as its system Staphylococcus aureus. Kind of test: Antibacterial activity against Staphylococcus aureus SA-K1902 bearing norA- deficient mutation by microdilution technique. The test is classed as functional.
Test [8] has as its system Staphylococcus aureus. Kind of test: Antibacterial activity against Staphylococcus aureus K1640 bearing S84L mutant GyrA and S80Y mutant GrlA by microdilution technique. The test is classed as functional.
Test [9] has as its system Staphylococcus aureus. Kind of test: Antibacterial activity against methicillin and ciprofloxacin-resistant Staphylococcus aureus 25A by microdilution technique. The test is classed as functional.
Test [10] has as its system Staphylococcus aureus. Kind of test: Antibacterial activity against wild-type norA expressing Staphylococcus aureus SA-1199 by microdilution technique. The test is classed as functional.
Test [11] relates to Staphylococcus aureus. Kind of test: Antibacterial activity against Staphylococcus aureus K1305 bearing wild-type GyrA and E84K mutant GrlA by microdilution technique. The test is classed as functional.
The next test relates to Escherichia coli. Kind of test: Antibacterial activity against Escherichia coli ATCC 25922 by microdilution technique. The test is classed as functional.
Test [12] relates to Staphylococcus aureus. Kind of test: Antibacterial activity against Staphylococcus aureus SA-K1904 bearing norA++ efficient mutation by microdilution technique. The test is classed as functional.
Test [13] concerns Staphylococcus aureus. Kind of test: Antibacterial activity against Staphylococcus aureus K1628 bearing S84L mutant GyrA and S80F mutant GrlA by microdilution technique. The test is classed as functional.

≈ marks a conversion by molar mass, not a printed value.

A word on the MIC: it is the lowest concentration found to suppress growth. As a reminder, the MIC50 is the lowest concentration that inhibits either 50% of growth or 50% of the strains tested, depending on the study.

With `COC(=O)[C@H]1[C@H]2C[C@@H]3c4[nH]c5cc(OC)ccc5c4CCN3C[C@H]2C[C@@H](OC(=O)c2cc(OC)c(OC)c(OC)c2)[C@@H]1OC`, the Activity in test [1] was 84.8%.

`CCOC(=O)c1cn(C2CC2)c2c(C)c(N3CCC4=C(C3)C(=O)C(C)CS4)c(N)cc2c1=O` (configuration not stated): in [1], the Activity came out at 50.5%. Besides, the MIC with Staphylococcus aureus [2] is over 100 µg/mL.

Turning to `CCOC(=O)c1cn(C2CC2)c2cc(N3CCC4=C(C3)C(O)CCS4)c(N)cc2c1=O` (configuration not stated), the Activity in test [1] is 26.3%. Besides, the MIC against Staphylococcus aureus [2] was over 100 µg/mL.

As for `CCOC(=O)c1cn(C2CC2)c2c(C)c(N3CCC4=C(C3)C(O)CCS4)c(N)cc2c1=O` (configuration not stated), the Activity in [1] stood at 47.3%. Moreover, the MIC in the test on Staphylococcus aureus [2] was over 100 µg/mL.

For `CCOC(=O)c1cn(C2CC2)c2c(C)c(N3CCC4=C(C3)C(=O)CCS4)c(N)cc2c1=O`, in test [1], the Activity came out at 36.8%. In the test on Staphylococcus aureus [2], this molecule came in with a minimum inhibitory concentration (MIC) of over 100 µg/mL.

`CCOC(=O)c1cn(C2CC2)c2cc(N3CCC4=C(C3)C(=O)CCS4)c(N)cc2c1=O`: in test [1], the Activity amounted to 35.7%. The MIC against Staphylococcus aureus [2] is over 100 µg/mL.

Consider `CCOC(=O)c1cn(C2CC2)c2cc(N3CCC4=C(C3)C(=O)C(C)CS4)c(N)cc2c1=O` (configuration not stated), for which the Activity in test [1] is 63.5%. Further, the MIC with Staphylococcus aureus [2] is over 100 µg/mL.

For `CCOC(=O)c1cn(C2CC2)c2cc(N3CCNCC3)c(F)cc2c1=O` [CIPROFLOXACIN ETHYL ESTER], the Activity in [1] was 20.8%. Besides, the MIC50 in the test with Staphylococcus aureus [2] is over 100 µg/mL.

`CC1CSC2=C(CN(c3cc4c(cc3F)c(=O)c(C(=O)O)cn4C3CC3)CC2)/C1=N/O` (configuration not stated): the MIC was 1.25 µg/mL (≈ 2.82 µM) against Staphylococcus aureus [3]; 0.31 µg/mL (≈ 0.699 µM) against Staphylococcus aureus [4]; 1.25 µg/mL (≈ 2.82 µM) with Staphylococcus aureus [5]; 0.31 µg/mL (≈ 0.699 µM) in the test on Staphylococcus aureus [6]; 0.16 µg/mL (≈ 0.361 µM) in the test on Staphylococcus aureus [7]; over 10 µg/mL against Staphylococcus aureus [8]. For the same molecule, the MIC against Staphylococcus aureus [9] was 4 µg/mL (≈ 9.02 µM); in the test on Staphylococcus aureus [10] it was 0.16 µg/mL (≈ 0.361 µM); with Staphylococcus aureus [11] it was 1.25 µg/mL (≈ 2.82 µM); with Escherichia coli, 32 µg/mL (≈ 72.2 µM); with Staphylococcus aureus [12], 0.31 µg/mL (≈ 0.699 µM); with Staphylococcus aureus [13], over 10 µg/mL.
